From PubChem BioAssay (NCI)
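Test compounds were applied to cells in 96-well plates for 48 hours at 5 doses. GI50 marks 50% less growth. TGI: total growth inhibition.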

Assays:
Assay in all cases: growth of human tumour cells (NCI), 48 h
COLO 205 colon = tested on: COLO 205 colon
SF-539 CNS = tested on: SF-539 CNS
NCI-H522 lung = tested on: NCI-H522 lung
MALME-3M melanoma = tested on: MALME-3M melanoma
A549 NSCLC = tested on: A549 NSCLC
SK-MEL-5 melanoma = tested on: SK-MEL-5 melanoma
SF-295 CNS = tested on: SF-295 CNS
DU-145 prostate = tested on: DU-145 prostate
MCF7 breast = tested on: MCF7 breast
BT-549 breast = tested on: BT-549 breast

Row | Structure (SMILES) | TGI (COLO 205 colon) [µM] | TGI (SF-539 CNS) [µM] | TGI (NCI-H522 lung) [µM] | TGI (MALME-3M melanoma) [µM] | TGI (A549 NSCLC) [µM] | TGI (SK-MEL-5 melanoma) [µM] | TGI (SF-295 CNS) [µM] | TGI (DU-145 prostate) [µM] | TGI (MCF7 breast) [µM] | TGI (BT-549 breast) [µM] | GI50 (SF-539 CNS) [µM] | GI50 (NCI-H522 lung) [µM] | GI50 (MALME-3M melanoma) [µM] | GI50 (A549 NSCLC) [µM] | GI50 (DU-145 prostate) [µM] | GI50 (SK-MEL-5 melanoma) [µM] | GI50 (MCF7 breast) [µM] | GI50 (SF-295 CNS) [µM] | GI50 (COLO 205 colon) [µM] | GI50 (BT-549 breast) [µM]
1 | CC(Oc1ccc2c(-c3ccc(Cl)cc3)cc(=O)oc2c1)C(=O)O (stereo not given) | > 100 | > 100 | > 100 | > 100 | > 100 | > 100 | > 100 | – | – | – | – | – | – | – | – | – | – | – | – | –
2 | O=[N+]([O-])c1nccn1CC(O)c1ccccc1 (stereo not given) | > 100 | > 100 | > 100 | > 100 | > 100 | > 100 | > 100 | – | – | – | – | – | – | – | – | – | – | – | – | –
3 | COc1ccc(/C=C/c2cc(OC)c(OC(C)=O)c(OC)c2)cc1 | > 100 | – | 46.1 | 88.1 | > 100 | – | – | – | – | – | – | – | – | – | – | – | – | – | – | –
4 | CSC(=NC(=O)c1ccccc1Cl)SCCSC(=NC(=O)c1ccccc1Cl)SC | > 100 | > 100 | > 100 | > 100 | > 100 | > 100 | > 100 | – | – | – | – | – | – | – | – | – | – | – | – | –
5 | CCOC(=O)C12CCCC1(O)N(NC(=O)OC)C(C)=C2C(=O)OC (stereo not given) | > 100 | > 100 | > 100 | > 100 | > 100 | – | > 10 | – | – | – | – | – | – | – | – | – | – | – | – | –
6 | Cc1cc(OCc2nnc3n2S(=O)(=O)c2ccccc2N3C)ccc1Cl | > 100 | 38.6 | 45.6 | – | > 100 | > 100 | 50.2 | > 100 | > 100 | 36.4 | – | – | – | – | – | – | – | – | – | –
7 | O=C(C[n+]1ccccc1)N/N=C(/CCC(=O)N(Cc1ccccc1)Cc1ccccc1)CC(=O)c1ccccc1 | > 100 | > 100 | > 100 | > 100 | > 100 | > 100 | > 100 | – | – | – | – | – | – | – | – | – | – | – | – | –
8 | CSC(=O)C[C@@]12O[C@@H]([C@@H](C)C3CCC4[C@@H]5C(O)CC6=CC(=O)C=C[C@]6(C)C5CC[C@@]43C)C[C@](C)(O1)C(C)(C)O2 (stereo not given in full) | – | 30.7 | 30 | 43.5 | 32 | – | 28.6 | – | – | – | – | – | – | – | – | – | – | – | – | –
9 | COc1ccc2c(c1)c(-c1nc(-c3cn(C)c4ccncc34)cs1)cn2C | – | 3.25 | 3.26 | 3.58 | 3.99 | 2.85 | 3.16 | 3.34 | 3.34 | – | 1.77 | 1.77 | 2.02 | 1.93 | 1.78 | 1.52 | 1.7 | 1.66 | – | –
10 | COc1ccc(CC(=O)NCCc2ccc(OC)c(OC)c2OC)cc1 | – | 36.7 | > 100 | > 100 | > 100 | > 100 | > 100 | – | – | – | – | – | – | – | – | – | – | – | – | –
11 | [N-]=[N+]=NCN1C(=O)C2C3C=CC(C2C1=O)C1C2C(=O)N(CN=[N+]=[N-])C(=O)C2C31 (stereo not given) | > 100 | > 100 | > 100 | – | > 100 | > 100 | > 100 | > 100 | > 100 | – | – | – | – | – | – | – | – | – | – | –
12 | C=C(C)[C@@H]1CC[C@]2(CO)CC[C@]3(C)[C@H](CC[C@@H]4[C@@]5(C)CCCNC(C)(C)[C@@H]5CC[C@]43C)[C@@H]12 | 3.24 | 3.01 | – | 3.05 | 3.24 | 2.7 | 3.13 | 3.02 | 2.77 | – | 1.58 | – | 1.5 | 1.73 | 1.63 | 1.38 | 1.29 | 1.66 | 1.54 | –
13 | CSc1cc([C@@H]2C[C@H]2c2ccc(Cl)cc2)on1 | > 100 | – | 45.9 | – | > 100 | – | 69.2 | 42 | 41 | 62 | – | 6.91 | – | 21.6 | 19.6 | – | 16.3 | 34.1 | 23.9 | 23.9
14 | COC(=O)CCC(=O)Nc1ccc(Cl)cc1C | > 100 | > 100 | > 100 | > 100 | > 100 | > 100 | > 100 | – | – | – | – | – | – | – | – | – | – | – | – | –
15 | COc1ccc(C(=O)C2CCC(C(=O)O)C2)cc1 (stereo not given) | > 100 | > 100 | > 100 | > 100 | > 100 | > 100 | > 100 | – | – | – | – | – | – | – | – | – | – | – | – | –
16 | CC(=O)OC12C(C)=C(C)C(=O)N1c1ccccc1N2C(C)=O (stereo not given) | > 100 | – | > 100 | – | > 100 | > 100 | > 100 | – | – | – | – | – | – | – | – | – | – | – | – | –
17 | CCCCCCCCCCCCSC(=S)c1c(C)[nH]n(-c2ccccc2)c1=O | > 50 | 33.9 | – | 39.8 | > 50 | 15.9 | 35.6 | – | – | – | – | – | – | – | – | – | – | – | – | –
18 | Nc1nc(=O)n(C2CCC(CO)O2)cc1F (stereo not given) | > 100 | – | > 100 | > 100 | > 100 | > 100 | > 100 | – | – | – | – | – | – | – | – | – | – | – | – | –
19 | CC(C)(C)C(=O)N1C(C(=O)O)Cc2ccccc2[C@@H]1Cc1ccccc1 (stereo not given in full) | > 100 | > 100 | > 100 | > 100 | > 100 | > 100 | > 100 | – | – | – | – | – | – | – | – | – | – | – | – | –
